Experiments:
Assay type in all cases: biochemical
FLT3-ITD = target: T1, FLT3-ITD (Homo sapiens, UniProt P36888); test: AlphaScreen kinase assay with recombinant enzyme, FLT3-ITD; settings: 8pt; read-out: FLT3_ITD 8pt: IC50
T1 sequence (P36888 1-993): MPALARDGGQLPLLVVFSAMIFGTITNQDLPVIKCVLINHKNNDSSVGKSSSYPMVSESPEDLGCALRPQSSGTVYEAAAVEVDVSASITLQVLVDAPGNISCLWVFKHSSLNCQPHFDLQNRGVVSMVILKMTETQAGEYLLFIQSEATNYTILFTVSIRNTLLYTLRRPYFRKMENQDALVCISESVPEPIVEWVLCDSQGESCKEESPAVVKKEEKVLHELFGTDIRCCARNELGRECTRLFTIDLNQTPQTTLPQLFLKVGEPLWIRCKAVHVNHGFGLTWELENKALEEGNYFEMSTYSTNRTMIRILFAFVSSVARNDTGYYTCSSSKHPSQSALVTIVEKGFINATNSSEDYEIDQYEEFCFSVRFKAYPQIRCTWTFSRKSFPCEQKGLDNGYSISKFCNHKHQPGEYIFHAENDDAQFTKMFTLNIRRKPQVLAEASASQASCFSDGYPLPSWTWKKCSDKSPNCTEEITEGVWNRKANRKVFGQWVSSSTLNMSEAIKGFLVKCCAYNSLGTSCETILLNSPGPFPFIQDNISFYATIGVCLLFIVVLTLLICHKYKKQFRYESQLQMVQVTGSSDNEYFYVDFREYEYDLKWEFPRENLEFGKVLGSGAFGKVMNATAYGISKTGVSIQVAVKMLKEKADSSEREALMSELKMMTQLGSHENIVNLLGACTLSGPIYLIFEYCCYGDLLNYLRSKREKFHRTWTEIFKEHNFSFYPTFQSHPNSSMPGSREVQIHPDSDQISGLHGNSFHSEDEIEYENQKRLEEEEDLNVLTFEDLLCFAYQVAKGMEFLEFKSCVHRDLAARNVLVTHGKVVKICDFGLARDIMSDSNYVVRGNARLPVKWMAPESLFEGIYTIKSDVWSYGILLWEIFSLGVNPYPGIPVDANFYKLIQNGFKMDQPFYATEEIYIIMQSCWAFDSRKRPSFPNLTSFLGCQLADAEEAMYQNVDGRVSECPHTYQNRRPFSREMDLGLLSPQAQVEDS
Outline: (§1)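 Inhibition was measured as a drop in AlphaScreen signal arising from phosphotyrosine-bead capture of a biotinylated poly(Glu4-Tyr) peptide (30 nM) phosphorylated by recombinant kinase. For IC50 work the stated final concentration was 10 μM for the FLT3 mutants and 100 μM for c-KIT.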

FLT3-D835Y = target: T2, FLT3-D835Y (Homo sapiens, UniProt P36888, D835Y); test: AlphaScreen kinase assay with recombinant enzyme, FLT3-D835Y; settings: 8pt, GMean
T2 construct: purchased Invitrogen PV3967
T2 sequence (P36888 27-993 D835Y): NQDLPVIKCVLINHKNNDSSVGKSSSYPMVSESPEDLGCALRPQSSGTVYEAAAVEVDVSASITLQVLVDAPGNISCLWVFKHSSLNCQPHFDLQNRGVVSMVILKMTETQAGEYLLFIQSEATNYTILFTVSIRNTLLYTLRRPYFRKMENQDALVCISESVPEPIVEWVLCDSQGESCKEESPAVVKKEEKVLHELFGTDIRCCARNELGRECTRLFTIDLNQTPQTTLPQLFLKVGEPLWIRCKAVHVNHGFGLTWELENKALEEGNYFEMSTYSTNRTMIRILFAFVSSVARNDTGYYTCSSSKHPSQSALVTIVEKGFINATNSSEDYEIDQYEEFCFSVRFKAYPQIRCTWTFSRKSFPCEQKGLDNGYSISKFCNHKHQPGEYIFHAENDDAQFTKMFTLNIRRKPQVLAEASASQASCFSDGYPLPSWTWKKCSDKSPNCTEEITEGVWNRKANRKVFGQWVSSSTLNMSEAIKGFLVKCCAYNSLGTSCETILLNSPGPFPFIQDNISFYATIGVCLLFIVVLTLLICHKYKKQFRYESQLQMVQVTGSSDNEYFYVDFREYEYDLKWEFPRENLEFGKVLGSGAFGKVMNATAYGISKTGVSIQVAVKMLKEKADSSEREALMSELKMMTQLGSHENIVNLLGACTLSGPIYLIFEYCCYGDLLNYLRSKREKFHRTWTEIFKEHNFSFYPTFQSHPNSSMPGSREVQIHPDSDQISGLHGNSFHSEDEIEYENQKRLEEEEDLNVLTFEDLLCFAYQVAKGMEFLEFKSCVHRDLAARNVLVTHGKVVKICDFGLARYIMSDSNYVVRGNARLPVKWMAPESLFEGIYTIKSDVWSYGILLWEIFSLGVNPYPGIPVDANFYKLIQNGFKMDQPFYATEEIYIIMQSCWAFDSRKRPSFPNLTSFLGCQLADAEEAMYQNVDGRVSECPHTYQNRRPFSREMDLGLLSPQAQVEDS
Outline: as §1

c-KIT = target: T3, c-KIT (Homo sapiens, UniProt P10721); test: AlphaScreen kinase assay with recombinant enzyme, c-KIT; settings: 100ATP, 8pt, GMean
T3 construct: purchased Millipore 14-559K
T3 sequence (P10721 26-976): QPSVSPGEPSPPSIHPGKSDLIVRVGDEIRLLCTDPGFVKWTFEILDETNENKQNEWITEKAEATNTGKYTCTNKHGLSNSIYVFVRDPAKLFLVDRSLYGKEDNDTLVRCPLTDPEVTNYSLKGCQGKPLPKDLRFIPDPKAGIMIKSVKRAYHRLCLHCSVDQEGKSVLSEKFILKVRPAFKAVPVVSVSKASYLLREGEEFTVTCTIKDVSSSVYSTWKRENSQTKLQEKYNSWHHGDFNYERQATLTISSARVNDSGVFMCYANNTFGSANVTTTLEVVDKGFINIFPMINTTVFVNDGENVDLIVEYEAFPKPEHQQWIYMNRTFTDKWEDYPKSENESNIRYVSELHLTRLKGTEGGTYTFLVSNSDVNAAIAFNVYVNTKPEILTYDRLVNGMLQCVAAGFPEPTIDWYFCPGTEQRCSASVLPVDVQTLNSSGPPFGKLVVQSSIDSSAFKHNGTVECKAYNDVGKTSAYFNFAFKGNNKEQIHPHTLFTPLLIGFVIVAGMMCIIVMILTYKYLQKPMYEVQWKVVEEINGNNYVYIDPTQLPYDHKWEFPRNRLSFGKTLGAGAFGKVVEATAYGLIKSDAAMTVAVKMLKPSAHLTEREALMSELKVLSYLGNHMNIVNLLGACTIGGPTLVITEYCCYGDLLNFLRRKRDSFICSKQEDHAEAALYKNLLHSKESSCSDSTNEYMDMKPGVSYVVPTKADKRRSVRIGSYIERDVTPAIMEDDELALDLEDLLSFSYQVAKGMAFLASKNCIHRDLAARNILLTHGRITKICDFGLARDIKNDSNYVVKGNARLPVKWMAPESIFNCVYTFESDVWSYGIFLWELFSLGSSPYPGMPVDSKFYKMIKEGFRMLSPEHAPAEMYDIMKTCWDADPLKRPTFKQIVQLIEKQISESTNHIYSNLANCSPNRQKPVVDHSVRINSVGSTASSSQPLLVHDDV
Outline: as §1

Row | IC50 (FLT3-ITD) | IC50 (FLT3-D835Y) | IC50 (c-KIT) | Structure (SMILES)
1 | 0.0001 to 10 µM | 0.0001 to 10 µM | 0.0001 to 10 µM | NC1CCC(NS(=O)(=O)c2cccc(-c3cnc4[nH]c(-c5ccccc5)cc4c3)n2)CC1 (centres unmarked) [Compound P-0088, N-(4-aminocyclohexyl)-6-(2-phenyl-1H-pyrrolo[2,3-b]pyridin-5-yl)pyridine-2-sulfonamide]
2 | 0.0001 to 10 µM | 0.0001 to 10 µM | 50 to 100 µM | O=C(c1cccc(-c2cnc3[nH]c(-c4ccccc4)cc3c2)n1)N1CCC(CO)CC1 [Compound P-0023, [4-(hydroxymethyl)-1-piperidyl]-[6-(2-phenyl-1H-pyrrolo[2,3-b]pyridin-5-yl)-2-pyridyl]methanone]
3 | 0.0001 to 10 µM | 0.0001 to 10 µM | 0.0001 to 10 µM | CNC1CCN(C(=O)c2cccc(-c3cnc4[nH]c(-c5ccccc5)cc4c3)n2)C1 (centres unmarked) [Compound P-0040, [3-(methylamino)pyrrolidin-1-yl]-[6-(2-phenyl-1H-pyrrolo[2,3-b]pyridin-5-yl)-2-pyridyl]methanone]
4 | 0.0001 to 10 µM | 0.0001 to 10 µM | 0.0001 to 10 µM | CN(C)C1CCN(C(=O)c2cccc(-c3cnc4[nH]c(-c5ccccc5)cc4c3)n2)C1 (centres unmarked) [Compound P-0104, [3-(dimethylamino)pyrrolidin-1-yl]-[6-(2-phenyl-1H-pyrrolo[2,3-b]pyridin-5-yl)-2-pyridyl]methanone]
5 | 0.0001 to 10 µM | 0.0001 to 10 µM | 10 to 50 µM | O=S(=O)(NC1CNC1)c1cccc(-c2cnc3[nH]c(-c4ccccc4)cc3c2)n1 [Compound P-0071, N-(azetidin-3-yl)-6-(2-phenyl-1H-pyrrolo[2,3-b]pyridin-5-yl)pyridine-2-sulfonamide]
6 | 0.0001 to 10 µM | 0.0001 to 10 µM | – | CNCC1CCN(C(=O)c2cccc(-c3cnc4[nH]c(-c5ccccc5)cc4c3)n2)C1 (centres unmarked) [Compound P-0079, [3-(methylaminomethyl)pyrrolidin-1-yl]-[6-(2-phenyl-1H-pyrrolo[2,3-b]pyridin-5-yl)-2-pyridyl]methanone]

Second part, the molecule before the results:

Row | Structure (SMILES) | IC50 (FLT3-ITD) | IC50 (FLT3-D835Y) | IC50 (c-KIT)
7 | CC(C)(C#N)NC(=O)c1cccc(-c2cnc3[nH]c(-c4ccc(C(F)(F)F)nc4)cc3c2)n1 [Compound P-0201, N-(1-cyano-1-methyl-ethyl)-6-[2-[6-(trifluoromethyl)-3-pyridyl]-1H-pyrrolo[2,3-b]pyridin-5-yl]pyridine-2-carboxamide] | 0.0001 to 10 µM | 0.0001 to 10 µM | 50 to 100 µM
8 | CNC1CCN(C(=O)c2n[nH]c3ccc(-c4cnc5[nH]c(-c6ccccc6)cc5c4)cc23)C1 (centres unmarked) [Compound P-0028, [3-(methylamino)pyrrolidin-1-yl]-[5-(2-phenyl-1H-pyrrolo[2,3-b]pyridin-5-yl)-1H-indazol-3-yl]methanone] | 0.0001 to 10 µM | 0.0001 to 10 µM | 0.0001 to 10 µM
9 | CC1CCN(C(=O)c2n[nH]c3ccc(-c4cnc5[nH]c(-c6ccccc6)cc5c4)cc23)CC1 [Compound P-0027, (4-methyl-1-piperidyl)-[5-(2-phenyl-1H-pyrrolo[2,3-b]pyridin-5-yl)-1H-indazol-3-yl]methanone] | 10 to 50 µM | 0.0001 to 10 µM | 50 to 100 µM
10 | C#Cc1cc2cc(-c3cccc(S(=O)(=O)NC4CC4)c3)cnc2[nH]1 [Compound P-0004, N-cyclopropyl-3-(2-ethynyl-1H-pyrrolo[2,3-b]pyridin-5-yl)benzenesulfonamide] | – | 0.0001 to 10 µM | 0.0001 to 10 µM
11 | CNC1CCN(C(=O)c2cccc(-c3cnc4[nH]c(-c5cn(C)nc5C)cc4c3)n2)C1 (centres unmarked) [Compound P-0049, [6-[2-(1,3-dimethylpyrazol-4-yl)-1H-pyrrolo[2,3-b]pyridin-5-yl]-2-pyridyl]-[3-(methylamino)pyrrolidin-1-yl]methanone] | 0.0001 to 10 µM | 0.0001 to 10 µM | 0.0001 to 10 µM
12 | CC(C)(C#N)NC(=O)c1cccc(-c2cnc3[nH]c(-c4cnc(C(F)(F)F)nc4)cc3c2)n1 [Compound P-0204, N-(1-cyano-1-methyl-ethyl)-6-[2-[2-(trifluoromethyl)pyrimidin-5-yl]-1H-pyrrolo[2,3-b]pyridin-5-yl]pyridine-2-carboxamide] | 0.0001 to 10 µM | 0.0001 to 10 µM | 50 to 100 µM
13 | CC(C)(C#N)NC(=O)c1cccc(-c2cnc3[nH]c(-c4cscn4)cc3c2)n1 [Compound P-0167, N-(1-cyano-1-methyl-ethyl)-6-(2-thiazol-4-yl-1H-pyrrolo[2,3-b]pyridin-5-yl)pyridine-2-carboxamide] | 0.0001 to 10 µM | 0.0001 to 10 µM | –
14 | CC(C)(C#N)NC(=O)c1cccc(-c2cnc3[nH]c(-c4ccc(C5(C#N)CC5)cc4)cc3c2)n1 [Compound P-0194, 6-[2-[4-(1-cyanocyclopropyl)phenyl]-1H-pyrrolo[2,3-b]pyridin-5-yl]-N-(1-cyano-1-methyl-ethyl)pyridine-2-carboxamide] | 0.0001 to 10 µM | 0.0001 to 10 µM | –
15 | CC(=O)NC1CCN(C(=O)c2n[nH]c3ccc(-c4cnc5[nH]c(-c6ccccc6)cc5c4)cc23)CC1 [Compound P-0021, N-[1-[5-(2-phenyl-1H-pyrrolo[2,3-b]pyridin-5-yl)-1H-indazole-3-carbonyl]-4-piperidyl]acetamide] | – | 0.0001 to 10 µM | 50 to 100 µM
16 | CN(C)S(=O)(=O)Nc1cccc(-c2cnc3[nH]c(-c4ccccc4)cc3c2)c1 [Compound P-0007, 5-[3-(dimethylsulfamoylamino)phenyl]-2-phenyl-1H-pyrrolo[2,3-b]pyridine] | – | 0.0001 to 10 µM | 10 to 50 µM
17 | CCc1ncc(-c2cc3cc(-c4cccc(C(=O)NC(C)(C)C#N)n4)cnc3[nH]2)cn1 [Compound P-0205, N-(1-cyano-1-methyl-ethyl)-6-[2-(2-ethylpyrimidin-5-yl)-1H-pyrrolo[2,3-b]pyridin-5-yl]pyridine-2-carboxamide] | 0.0001 to 10 µM | 0.0001 to 10 µM | –
18 | CC(C)(C#N)NC(=O)c1cccc(-c2cnc3[nH]c(-c4ccc(N5CCOCC5)nc4)cc3c2)n1 [Compound P-0197, N-(1-cyano-1-methyl-ethyl)-6-[2-(6-morpholino-3-pyridyl)-1H-pyrrolo[2,3-b]pyridin-5-yl]pyridine-2-carboxamide] | 0.0001 to 10 µM | 0.0001 to 10 µM | –
19 | CC(C)Oc1ccc(-c2cc3cc(-c4cccc(C(=O)NC(C)(C)C#N)n4)cnc3[nH]2)cn1 [Compound P-0190, N-(1-cyano-1-methyl-ethyl)-6-[2-(6-isopropoxy-3-pyridyl)-1H-pyrrolo[2,3-b]pyridin-5-yl]pyridine-2-carboxamide] | 0.0001 to 10 µM | 0.0001 to 10 µM | –
20 | CCOc1ncc(-c2cc3cc(-c4cccc(C(=O)NC(C)(C)C#N)n4)cnc3[nH]2)cn1 [Compound P-0203, N-(1-cyano-1-methyl-ethyl)-6-[2-(2-ethoxypyrimidin-5-yl)-1H-pyrrolo[2,3-b]pyridin-5-yl]pyridine-2-carboxamide] | 0.0001 to 10 µM | 0.0001 to 10 µM | –

— US9938273B2 (Plexxikon Inc., priority 2015, dated 2018)
